Experimental data reported in ChEMBL document CHEMBL1201862, “PubChem BioAssay data set” (2004).
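In this assay, cells in 96-well plates receive the compound at five concentrations for 48 hours. Endpoints are linearly interpolated between the surrounding concentrations. GI50 marks 50% less growth.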 Calls of active or inactive are those of the source. Cut-off read from the data, not from the text of the source: active = GI50 up to about 1.1 µM and inactive = higher.

Experiments:
Assay in all cases: DTP human tumour cell line panel, 48 h
A498 = test system: A498
CCRF-CEM = test system: CCRF-CEM
HCC 2998 = test system: HCC 2998
HCT-116 = test system: HCT-116
HL-60 = test system: HL-60
K562 = test system: K562
LOX IMVI = test system: LOX IMVI
M14 = test system: M14
Malme-3M = test system: Malme-3M
NCI-H23 = test system: NCI-H23
OVCAR-4 = test system: OVCAR-4
RPMI-8226 = test system: RPMI-8226
SF-539 = test system: SF-539
SK-MEL-2 = test system: SK-MEL-2
SN12C = test system: SN12C
SR = test system: SR
U-251 = test system: U-251
UO-31 = test system: UO-31
MCF7 = test system: MCF7
NCI-H522 = test system: NCI-H522

Structure (SMILES) | GI50 (A498) | GI50 (CCRF-CEM) | GI50 (HCC 2998) | GI50 (HCT-116) | GI50 (HL-60) | GI50 (K562) | GI50 (LOX IMVI) | GI50 (M14) | GI50 (Malme-3M) | GI50 (NCI-H23) | GI50 (OVCAR-4) | GI50 (RPMI-8226) | GI50 (SF-539) | GI50 (SK-MEL-2) | GI50 (SN12C) | GI50 (SR) | GI50 (U-251) | GI50 (UO-31) | GI50 (MCF7) | GI50 (NCI-H522)
CCOC(=O)C(C(=O)OCC)c1cc(-c2cc3ccccc3o2)oc(=O)c1C#N | 25.3 µM (inactive) | 29.6 µM (inactive) | 19.5 µM (inactive) | 21.3 µM (inactive) | 29.7 µM (inactive) | 29 µM (inactive) | 17.9 µM (inactive) | 20.8 µM (inactive) | 22.4 µM (inactive) | 16 µM (inactive) | 26.5 µM (inactive) | 35.6 µM (inactive) | 19.3 µM (inactive) | 19.8 µM (inactive) | 24.4 µM (inactive) | 24.5 µM (inactive) | 16.2 µM (inactive) | 32.2 µM (inactive) | – | –
Brc1ccccc1-c1ncc(-c2ccccc2)o1 | 23 µM (inactive) | 24.9 µM (inactive) | 30 µM (inactive) | 34.8 µM (inactive) | 30.5 µM (inactive) | 21.1 µM (inactive) | 17.1 µM (inactive) | 29.6 µM (inactive) | 26.7 µM (inactive) | 29.4 µM (inactive) | 29.4 µM (inactive) | 15 µM (inactive) | 9.91 µM (inactive) | 27.3 µM (inactive) | 55.2 µM (inactive) | – | 17 µM (inactive) | 43.7 µM (inactive) | 3.47 µM (inactive) | 22.6 µM (inactive)
COc1cccc2c1C(=O)c1c(O)c3c(c(O)c1C2=O)C[C@@](O)(C(C)=O)C[C@@H]3OC1CC(O)C(O)C(C)O1 (stereo not given in full) | 3.05 µM (inactive) | 0.0902 µM (active) | 0.918 µM (active) | 0.288 µM (active) | 0.0501 µM (active) | 0.925 µM (active) | 0.59 µM (active) | 4.8 µM (inactive) | 0.000916 µM (active) | 0.942 µM (active) | 3.81 µM (inactive) | 0.485 µM (active) | 0.9 µM (active) | 4.81 µM (inactive) | 0.675 µM (active) | 0.00935 µM (active) | 0.359 µM (active) | 1.66 µM (inactive) | – | 1.82 µM (inactive)
NCc1ccc(O)c(O)c1 | > 100 µM (inactive) | 53 µM (inactive) | > 100 µM (inactive) | > 100 µM (inactive) | 12.5 µM (inactive) | > 100 µM (inactive) | > 100 µM (inactive) | > 100 µM (inactive) | – | > 100 µM (inactive) | > 100 µM (inactive) | > 100 µM (inactive) | > 100 µM (inactive) | > 100 µM (inactive) | > 100 µM (inactive) | 38.5 µM (inactive) | > 100 µM (inactive) | > 100 µM (inactive) | > 100 µM (inactive) | –
O=C(NC(Cc1ccc(I)cc1)C(=O)O)c1ccc(Br)cc1 (stereo not given) | > 100 µM (inactive) | > 66.2 µM (inactive) | 25.9 µM (inactive) | > 100 µM (inactive) | > 100 µM (inactive) | > 73.1 µM (inactive) | > 100 µM (inactive) | – | 80.9 µM (inactive) | > 100 µM (inactive) | > 85.5 µM (inactive) | 46.9 µM (inactive) | > 100 µM (inactive) | > 100 µM (inactive) | > 100 µM (inactive) | – | 65.8 µM (inactive) | > 100 µM (inactive) | > 60.4 µM (inactive) | 64.9 µM (inactive)
Clc1ccccc1/C=C/c1cscn1 | > 100 µM (inactive) | > 100 µM (inactive) | > 100 µM (inactive) | > 100 µM (inactive) | > 100 µM (inactive) | > 100 µM (inactive) | > 100 µM (inactive) | > 100 µM (inactive) | > 100 µM (inactive) | > 100 µM (inactive) | > 100 µM (inactive) | > 100 µM (inactive) | > 100 µM (inactive) | > 100 µM (inactive) | > 100 µM (inactive) | > 100 µM (inactive) | > 100 µM (inactive) | 88.1 µM (inactive) | – | > 100 µM (inactive)
O=C1[C@@H]2C(c3c(Cl)cccc3Cl)=NO[C@@H]2C(=O)N1c1ccc(Cc2ccc(N3C(=O)[C@H]4C(c5c(Cl)cccc5Cl)=NO[C@H]4C3=O)cc2)cc1 | > 100 µM (inactive) | > 100 µM (inactive) | > 100 µM (inactive) | – | > 100 µM (inactive) | > 100 µM (inactive) | > 100 µM (inactive) | > 100 µM (inactive) | > 100 µM (inactive) | > 100 µM (inactive) | > 100 µM (inactive) | > 100 µM (inactive) | > 100 µM (inactive) | > 100 µM (inactive) | > 100 µM (inactive) | – | > 100 µM (inactive) | 90.6 µM (inactive) | – | –
Cc1cccc(C(O)c2cccnc2)c1O (stereo not given) | – | > 100 µM (inactive) | 44.2 µM (inactive) | > 100 µM (inactive) | > 100 µM (inactive) | > 100 µM (inactive) | > 100 µM (inactive) | – | > 100 µM (inactive) | > 100 µM (inactive) | – | > 100 µM (inactive) | > 100 µM (inactive) | – | > 100 µM (inactive) | > 100 µM (inactive) | > 100 µM (inactive) | > 100 µM (inactive) | > 100 µM (inactive) | > 100 µM (inactive)
CC(C)=CCC(OC(=O)C=C(C)C)c1cc(O)c2c(c1O)C(=O)C=CC2=O (stereo not given) | 2.62 µM (inactive) | 0.0208 µM (active) | 2.4 µM (inactive) | 0.279 µM (active) | 0.0419 µM (active) | 0.27 µM (active) | 0.261 µM (active) | – | 0.428 µM (active) | – | 0.78 µM (active) | 0.171 µM (active) | 2.3 µM (inactive) | 2.01 µM (inactive) | 1.04 µM (active) | – | 3.08 µM (inactive) | 3.3 µM (inactive) | – | –
O=C(c1ccccc1)C1C(c2ccccc2)N1S(=O)(=O)c1ccccc1 (stereo not given) | – | > 100 µM (inactive) | > 100 µM (inactive) | > 100 µM (inactive) | – | > 100 µM (inactive) | > 100 µM (inactive) | > 100 µM (inactive) | > 100 µM (inactive) | > 100 µM (inactive) | > 100 µM (inactive) | > 100 µM (inactive) | > 100 µM (inactive) | > 100 µM (inactive) | > 100 µM (inactive) | – | > 100 µM (inactive) | > 100 µM (inactive) | > 100 µM (inactive) | > 100 µM (inactive)
Nc1nnc2ccc(Cl)cc2[n+]1[O-] | 68.5 µM (inactive) | 29.6 µM (inactive) | 40.8 µM (inactive) | 39.7 µM (inactive) | 29.3 µM (inactive) | 21.8 µM (inactive) | 57.5 µM (inactive) | 39.1 µM (inactive) | 54 µM (inactive) | 30.1 µM (inactive) | – | > 100 µM (inactive) | – | 49.3 µM (inactive) | > 100 µM (inactive) | 46.3 µM (inactive) | > 100 µM (inactive) | > 100 µM (inactive) | 70.1 µM (inactive) | 38 µM (inactive)
Clc1nc2c(N3CCCC3)nc(N3CCNCC3)nc2[nH]1 | – | 19.4 µM (inactive) | 15.9 µM (inactive) | 16 µM (inactive) | 19.5 µM (inactive) | 23.1 µM (inactive) | 15.8 µM (inactive) | 19.7 µM (inactive) | 20.7 µM (inactive) | 16.9 µM (inactive) | 18.5 µM (inactive) | 21.3 µM (inactive) | 18.4 µM (inactive) | 18.4 µM (inactive) | 18.6 µM (inactive) | 16.9 µM (inactive) | 17.2 µM (inactive) | 15.7 µM (inactive) | 17.7 µM (inactive) | 17 µM (inactive)
COc1cc(/N=N\c2ccc(OC)c(S(=O)(=O)O)c2)c(C)cc1/N=N\c1ccc(/C=C/c2ccc(/N=[N+](/[O-])c3ccc(/C=C/c4ccc(/N=N/c5cc(C)c(/N=N\c6ccc(OC)c(S(=O)(=O)O)c6)cc5OC)cc4S(=O)(=O)O)c(S(=O)(=O)O)c3)cc2S(=O)(=O)O)c(S(=O)(=O)O)c1 | > 100 µM (inactive) | > 100 µM (inactive) | > 100 µM (inactive) | > 100 µM (inactive) | 69.8 µM (inactive) | > 100 µM (inactive) | > 100 µM (inactive) | – | > 100 µM (inactive) | > 100 µM (inactive) | > 100 µM (inactive) | > 100 µM (inactive) | > 100 µM (inactive) | > 100 µM (inactive) | > 100 µM (inactive) | – | > 100 µM (inactive) | > 100 µM (inactive) | > 100 µM (inactive) | > 100 µM (inactive)
Cc1ccc(C(=O)Nc2ccc(S(=O)(=O)O)c3cc(S(=O)(=O)O)cc(S(=O)(=O)O)c23)cc1N | > 100 µM (inactive) | > 100 µM (inactive) | > 100 µM (inactive) | > 100 µM (inactive) | > 100 µM (inactive) | > 100 µM (inactive) | – | > 100 µM (inactive) | > 100 µM (inactive) | > 100 µM (inactive) | > 100 µM (inactive) | – | > 100 µM (inactive) | > 100 µM (inactive) | > 100 µM (inactive) | > 100 µM (inactive) | – | > 100 µM (inactive) | > 100 µM (inactive) | > 100 µM (inactive)
Cc1ccc(NC(=O)S(N)(c2ccc(C)cc2)[N+](=O)[O-])cc1 (stereo not given) | > 100 µM (inactive) | > 100 µM (inactive) | > 100 µM (inactive) | > 100 µM (inactive) | 10 µM (inactive) | 8.87 µM (inactive) | > 100 µM (inactive) | > 100 µM (inactive) | > 100 µM (inactive) | > 100 µM (inactive) | > 100 µM (inactive) | > 100 µM (inactive) | – | > 100 µM (inactive) | > 100 µM (inactive) | > 100 µM (inactive) | > 100 µM (inactive) | 75 µM (inactive) | > 100 µM (inactive) | –
